Paper PMC10985113, “Exploring bi-carbazole-linked triazoles as inhibitors of prolyl endo peptidase via integrated in vitro and in silico study” (Scientific Reports, 2024)

What was measured:
[1] = system: human fibroblast BJ cell line; assay: Cytotoxicity evaluation (MTT) on BJ cell line; assay type: cell-based; details: BJ cells; for Cytotoxicity effect / % Inhibition ± SEM (µM): 60 µM; for % Inhibition of cell viability (60 µM) / inhibition at 60 µM / % Inhibition ± SEM (µM): 48 h; for inhibition at 60 µM: Homo sapiens, read-out: % Inhibition ± SEM; for inhibition at 60 µM / % Inhibition ± SEM (µM): mean of three
Protocol: To investigate the cytotoxic effect of these compounds we proceeded all the active compounds 3–9 for their in-vitro study by using BJ cell line. Here we designed our experiment with a specific count of the cells with 6 × 10^4 cells/well were employed into the plate. In each well we added 100 µL followed by 24 h incubation at specific temperature 37 °C in 5% CO2. After that, the 96-well plate was incubated with 50 µL/well (60 µM) of the tested compounds along with 150 µL/well fresh media for 48 h at the similar specific experimental conditions. After 2nd time of incubation, the old media was replaced with 200 µL yellow MTT dye in each well according to 1:10 ratio with the media followed by 4-h incubation. In the next step the dye was removed completely and DMSO (Dimethyl sulfoxide) cell culture grade 100 µL/well was employed into the 96-well plate to dissolve the produced formazan crystals of MTT dye converted into purple. At the end of experiment the obtained changes in the (OD) optical density was monitored at 540 by using spectrophotometer.

[2] = target: prolyl endopeptidase (Elizabethkingia meningoseptica, UniProt P27028); assay: In vitro prolyl endopeptidase inhibitory assay (spectrophotometric, Z-Gly-Pro-4-nitroanilide substrate); assay type: biochemical; details: triplicate, ± SEM; read-out: (IC50 ± µM) in vitro prolyl endo peptidase inhibitory activity
Protocol: Prolyl endopeptidase inhibitory activity was measured using a slightly modified version of Yoshimoto et al. spectrophotometric technique. In a 96-well plate, 140 µL of sodium phosphate buffer (50 mM, pH 7.0), 20 µL of the test substance (0.5 mM in methanol), and 20 µL of prolyl endopeptidase solution (0.02 U/well) were added to provide a total reaction volume of […]. Blank contained 20 µL methanol, instead of the test compound, while Z-prolyl-prolinal (0.5 mM) was used as the positive control. After the reaction mixture had been incubated at 30 °C for 10 min. Now 20 µL of the substrate solution, Z-Gly-Pro-4-nitroanilide (0.4 mM in 1,4-dioxane), was added, and a 96-well plate reader was used to continually monitor the change in absorbance at 410 nm for 30 min (SpectraMax-384, Molecular Devices, CA, USA). The reaction mixture's ultimate methanol and 1,4-dioxane concentrations were 10% v/v. In 96-well microplates, each reaction was carried out in triplicate.
The current study's experiments were all carried out in triplicate, and the data were presented as the standard error of the mean (SEM). Using the statistical software EZ-FIT enzyme kinetics, the IC50 values were determined (Perrella Scientific, Inc., Amherst, NH 03031, USA). […] (1) and (2).1 %Inhibition=100-O.Dtestcompound/O.Dcontrol×100 2 SE=σ/n

[3] = system: prolyl endo peptidase; assay: Kinetic studies (Lineweaver-Burk, Dixon plots) on PEP; assay type: biochemical; details: for Ki: substrate Z-Gly-Pro-pNA 0.2-0.5 mM
Protocol: Secondary replot of Line weaver-Burk plot between the slopes of each line on-Line weaver-Burk plot versus different concentrations of compounds 7, 8 (B, E). Dixon plot of reciprocal of rate of reaction (velocities) versus different concentrations of compounds 7, 8 (C, F).
In kinetic study PEP (0.02 U/200 L) was incubated with a range of inhibitor different concentrations for 10 min at 30 °C. The substrate was often utilized at doses between 0.2 and 0.5 mM. The substrate solutions (Z-Gly-Pro-pNA) were added at four different concentrations (0.2, 0.3, 0.4, and 0.5 mM), starting with the lowest concentration and working up to the highest concentration, to begin the catalytic reaction. Using a 96-well plate reader, the catalytic activity of PEP was measured at 410 nm (SpectraMax-384, Molecular Devices, CA, USA).

Sequence of prolyl endopeptidase (P27028 21-705): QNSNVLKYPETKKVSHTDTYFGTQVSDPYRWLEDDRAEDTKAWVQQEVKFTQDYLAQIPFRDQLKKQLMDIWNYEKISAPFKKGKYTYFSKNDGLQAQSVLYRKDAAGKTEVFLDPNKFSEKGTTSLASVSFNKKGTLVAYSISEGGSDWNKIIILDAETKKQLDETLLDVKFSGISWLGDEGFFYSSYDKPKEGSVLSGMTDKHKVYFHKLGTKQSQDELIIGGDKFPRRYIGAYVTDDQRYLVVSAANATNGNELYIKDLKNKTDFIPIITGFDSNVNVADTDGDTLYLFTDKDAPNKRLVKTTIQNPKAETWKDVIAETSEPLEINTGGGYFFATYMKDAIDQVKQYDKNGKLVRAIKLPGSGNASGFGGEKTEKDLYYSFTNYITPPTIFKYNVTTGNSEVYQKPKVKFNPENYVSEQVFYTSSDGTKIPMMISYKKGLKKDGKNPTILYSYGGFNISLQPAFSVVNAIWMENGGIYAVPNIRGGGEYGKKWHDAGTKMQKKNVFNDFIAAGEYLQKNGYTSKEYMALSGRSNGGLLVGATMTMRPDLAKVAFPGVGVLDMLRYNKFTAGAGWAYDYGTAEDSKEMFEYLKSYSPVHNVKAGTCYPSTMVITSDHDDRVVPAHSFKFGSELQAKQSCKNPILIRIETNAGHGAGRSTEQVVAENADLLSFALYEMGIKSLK

Molecule | Cytotoxicity effect [1] | % Inhibition of cell viability (60 µM) ([1]; first replicate column) [%] | % Inhibition of cell viability (60 µM) ([1]; second replicate column) [%] | % Inhibition of cell viability (60 µM) ([1]; third replicate column) [%] | inhibition at 60 µM [1] [%] | IC50 [2] [µM] | type (pattern) of inhibition [3] | Ki [3] [µM] | % Inhibition ± SEM (µM) [1] [%]
C=Cn1c2ccccc2c2ccccc21 [Compound 3] | Non-toxic | 26.34 | 22.74 | 23.95 | 24.4 ± 1.1 |  |  |  | 
C=Cn1c2ccccc2c2cc(-c3ccc4c(c3)c3ccccc3n4C=C)ccc21 [Compound 4] | Non-toxic | 22.75 | 21.55 | 26.34 | 23.6 ± 1.44 |  |  |  | 
O=C(Cn1cc(Cn2c3ccccc3c3cc(-c4ccc5c(c4)c4ccccc4n5Cc4cn(CC(=O)c5ccccc5)nn4)ccc32)nn1)c1ccccc1 [Compound 5] | Non-toxic | 25.14 | 22.74 | 20.35 | 22.8 ± 1.38 |  |  |  | 
Cc1ccc(C(=O)Cn2cc(Cn3c4ccccc4c4cc(-c5ccc6c(c5)c5ccccc5n6Cc5cn(CC(=O)c6ccc(C)cc6)nn5)ccc43)nn2)cc1 [Compound 6] | Non-toxic | 21.55 | 20.35 | 23.95 | 21.9 ± 1.05 |  |  |  | 
O=C(Cn1cc(Cn2c3ccccc3c3cc(-c4ccc5c(c4)c4ccccc4n5Cc4cn(CC(=O)c5ccc(Cl)cc5)nn4)ccc32)nn1)c1ccc(Cl)cc1 [Compound 7] | Non-toxic | 20.35 | 26.34 | 25.14 |  | 26.3 ± 0.76 | mixed | 24.1 ± 0.0076 | 23.95 ± 1.83
O=C(Cn1cc(Cn2c3ccccc3c3cc(-c4ccc5c(c4)c4ccccc4n5Cc4cn(CC(=O)c5ccc(Br)cc5)nn4)ccc32)nn1)c1ccc(Br)cc1 [Compound 8] | Non-toxic | 19.52 | 25.14 | 25.14 |  | 28.3 ± 0.64 | mixed | 23.67 ± 0.0084 | 23.27 ± 1.87
COc1ccc(C(=O)Cn2cc(Cn3c4ccccc4c4cc(-c5ccc6c(c5)c5ccccc5n6Cc5cn(CC(=O)c6ccc(OC)cc6)nn5)ccc43)nn2)cc1 [Compound 9] | Non-toxic | 16.75 | 21.55 | 19.16 |  | 31.1 ± 0.84 |  |  | 19.16 ± 1.38
Bacitracin [reference compound] |  |  |  |  |  | 125 ± 1.5 |  |  | 
